Measurements published in the NIST ThermoML archive (doi:10.1021/je700282w).
Numbers after ± are expanded uncertainties.

Experiment: activity coefficient (dimensionless); of the first substance listed, at infinite dilution; xn = mol fraction of the nth substance listed
Details: 101 kPa, Liquid, Chromatography, x1 = 0

activity coefficient (303.15 K)	activity coefficient (313.15 K)	activity coefficient (323.15 K)	activity coefficient (333.15 K)	activity coefficient (343.15 K)	activity coefficient (353.15 K)	activity coefficient (363.15 K)	SMILES
87.2 ± 8.7	79.9 ± 8	74.1 ± 7.4	68.3 ± 6.8	63.2 ± 6.3	60.3 ± 6	55.1 ± 5.5	CCCCCCCC [octane] + CCCCn1cc[n+](C)c1.O=S(=O)([O-])C(F)(F)F
2.46 ± 0.24	2.48 ± 0.25	2.49 ± 0.25	2.51 ± 0.25	2.53 ± 0.25	2.54 ± 0.25	2.57 ± 0.26	C=Cc1ccccc1 [styrene] + CCCCn1cc[n+](C)c1.O=S(=O)([O-])C(F)(F)F
56.7 ± 5.7	51.6 ± 5.2	48.5 ± 4.8	46 ± 4.6	43.3 ± 4.3	41.1 ± 4.1	38.8 ± 3.9	CCCCCCC [heptane] + CCCCn1cc[n+](C)c1.O=S(=O)([O-])C(F)(F)F
4.62 ± 0.46	4.57 ± 0.46	4.54 ± 0.45	4.52 ± 0.45	4.5 ± 0.45	4.49 ± 0.45	4.47 ± 0.44	CCc1ccccc1 [ethylbenzene] + CCCCn1cc[n+](C)c1.O=S(=O)([O-])C(F)(F)F
1.81 ± 0.18	1.82 ± 0.18	1.83 ± 0.18	1.84 ± 0.18	1.86 ± 0.18	1.87 ± 0.19	1.9 ± 0.19	c1ccccc1 [benzene] + CCCCn1cc[n+](C)c1.O=S(=O)([O-])C(F)(F)F
10.9 ± 1.1	10.4 ± 1	10.1 ± 1	9.69 ± 0.96	9.34 ± 0.93	9.15 ± 0.91	8.82 ± 0.88	C1=CCCCC1 [cyclohexene] + CCCCn1cc[n+](C)c1.O=S(=O)([O-])C(F)(F)F
57 ± 5.7	52.9 ± 5.3	50.9 ± 5.1	47.9 ± 4.8	45.6 ± 4.5	43.9 ± 4.4	40.8 ± 4.1	CC(C)CC(C)(C)C [2,2,4-trimethylpentane] + CCCCn1cc[n+](C)c1.O=S(=O)([O-])C(F)(F)F
122 ± 12	111 ± 11	103 ± 10	93.3 ± 9.3	88.2 ± 8.8	81.3 ± 8.1	75.9 ± 7.6	CCCCCCCCC [nonane] + CCCCn1cc[n+](C)c1.O=S(=O)([O-])C(F)(F)F
37.8 ± 3.8	35.7 ± 3.6	33.9 ± 3.4	32.1 ± 3.2	30.3 ± 3	29.1 ± 2.9	27.6 ± 2.8	CCCCCC [hexane] + CCCCn1cc[n+](C)c1.O=S(=O)([O-])C(F)(F)F
30.2 ± 3	28.5 ± 2.8	26.8 ± 2.7	25.4 ± 2.5	24.1 ± 2.4	22.9 ± 2.3	21.6 ± 2.1	CC1CCCCC1 [methylcyclohexane] + CCCCn1cc[n+](C)c1.O=S(=O)([O-])C(F)(F)F
26.5 ± 2.6	24.9 ± 2.5	23.9 ± 2.4	23.2 ± 2.3	22.2 ± 2.2	21.2 ± 2.1	19.9 ± 2	CCCCC [pentane] + CCCCn1cc[n+](C)c1.O=S(=O)([O-])C(F)(F)F
21.8 ± 2.2	20.5 ± 2	19.2 ± 1.9	18.1 ± 1.8	16.9 ± 1.7	15.5 ± 1.5	14.6 ± 1.4	C1CCCCC1 [cyclohexane] + CCCCn1cc[n+](C)c1.O=S(=O)([O-])C(F)(F)F
897	709	576	483	409	348	306	CCCCCCCCCC [decane] + CCCCn1cc[n+](C)c1.O=S(=O)([O-])C(F)(F)F

SMILES	activity coefficient (303.15 K)	activity coefficient (313.15 K)	activity coefficient (323.15 K)	activity coefficient (333.15 K)	activity coefficient (343.15 K)	activity coefficient (353.15 K)	activity coefficient (363.15 K)
Cc1ccccc1C [1,2-dimethylbenzene] + CCCCn1cc[n+](C)c1.O=S(=O)([O-])C(F)(F)F	3.66 ± 0.36	3.67 ± 0.36	3.68 ± 0.37	3.7 ± 0.37	3.71 ± 0.37	3.76 ± 0.37	3.78 ± 0.38
Cc1cccc(C)c1 [1,3-dimethylbenzene] + CCCCn1cc[n+](C)c1.O=S(=O)([O-])C(F)(F)F	4.72 ± 0.47	4.66 ± 0.46	4.58 ± 0.46	4.47 ± 0.45	4.41 ± 0.44	4.33 ± 0.43	4.07 ± 0.41
Cc1ccc(C)cc1 [1,4-dimethylbenzene] + CCCCn1cc[n+](C)c1.O=S(=O)([O-])C(F)(F)F	4.3 ± 0.43	4.32 ± 0.43	4.33 ± 0.43	4.37 ± 0.43	4.41 ± 0.44	4.42 ± 0.44	4.42 ± 0.44
Cc1ccccc1 [toluene] + CCCCn1cc[n+](C)c1.O=S(=O)([O-])C(F)(F)F	2.72 ± 0.27	2.75 ± 0.27	2.78 ± 0.28	2.8 ± 0.28	2.83 ± 0.28	2.85 ± 0.28	2.88 ± 0.29
